Like-named read-outs stand apart in the source and are kept apart here.
Key:
Huh7.5.1 cells [1] = assay: MTS cell viability assay; format: cell-based, human; conditions: 3 h treatment, 72 h incubation
From the text: In this comparison, niclosamide was used as a positive control, which is known as HCV inhibitor (unclear mechanisms). Data from CellTiter-Glo assay was obtained from separate experiments conducted on a different date.
MTS (3-(4,5-dimethylthiazol-2-yl)-5-(3-carboxymethoxyphenyl)-2-(4-sulfophenyl)-2H-tetrazolium)) assay is a colorimetric assay used to determine the mitochondrial metabolic rate by quantifying the reduced formazan product of MTS in cells to reflect viable cells. To determine the CC50 of each compound, Huh7.5.1 cells were treated with compounds or DMSO at indicated doses for 3 h in 96-well plates. After removal of compounds, cells were further incubated for 72 h prior to conducting the viability assay. The MTS assay in this study is accordance with a protocol provided by manufacturer (Promega, Madison, Wis. USA). One-fifth volume of MTS reagent was added into the culture supernatant at indicated time points. Plates were incubated at 37° C. for 3 hours with 5% CO2 followed by measuring the absorbance at 490 nanometers (nm) with an ELISA reader (SpectraMax Plus 385, Molecular Devices, USA). Percentages of toxicity were calculated using the formulas: 100-percentage of vial cells relative to that from the dimethyl sulfoxide (DMSO) treated group (100%) (n=3) (FIG. 68-FIG. 71).

[2] = tested on: cap-dependent Firefly luciferase (FLuc) translation; assay: In vitro translation of bicistronic FF/HCV/Ren mRNA in Krebs-2 extracts, cap-dependent; format: biochemical; conditions: 1 μM, relative to DMSO
From the text: (§1) In this system, Firefly luciferase (FLuc) translation is cap-dependent whereas Renilla luciferase (RLuc) expression HCV-IRES dependent. […] Results are presented relative to values obtained in the presence of DMSO ad expressed as mean±error of two biological replicates.
(§2) In this system, translation of the Firefly luciferase (FLuc) translation is cap-dependent whereas Renilla luciferase (RLuc) translation is dependent upon the HCV internal ribosome entry site (IRES) FIG. 11A.
(§3) In vitro transcriptions and translations were performed as described previously. Plasmid encoding the bicistronic FF/HCV/Ren open reading frame was linearized with BamHI and m^7Gppp-capped mRNA was produced by in vitro transcription reactions using SP6 RNA polymerase. In vitro translation reactions were performed with S10 extracts prepared from Kreb-2 cells and programmed with 4 ng/uL of in vitro transcribed mRNA. Firefly (FF) and Renilla (Ren) luciferase activities were measured on a Berthold Lumat LB9507 Luminometer and values normalized against vehicle control, which was set at 1.

CHIKVpp = format: cell-based, Chikungunya virus; conditions: Huh7.5.1 cells, racemates and single (+)-enantiomers, 1 μM or 2 μM for 3 h, luciferase after 48 h
VSVpp = format: cell-based, vesicular stomatitis virus
HCVcc-Luc = assay: HCVcc time-of-addition assay; format: cell-based, Hepatitis C virus; conditions: Huh7.5.1 cells, 0.5 μM for 3 h, luciferase after 48 h
[3] = tested on: HCV internal ribosome entry site (IRES)-dependent Renilla luciferase (RLuc) translation; assay: In vitro translation of bicistronic FF/HCV/Ren mRNA in Krebs-2 extracts, HCV IRES-dependent; format: biochemical, Hepatitis C virus; conditions: 1 μM, relative to DMSO
From the text: as §1, §2, §3

HCVpp = format: cell-based, Hepatitis C virus; conditions: Huh7.5.1 cells, racemates and single (+)-enantiomers, 1 μM or 2 μM for 3 h, luciferase after 48 h
[4] = tested on: HCV replicon cell line 2-3+ (full-length HCV Genotype 1b RNA genome); assay: HCV replicon system: viral RNA replication and protein synthesis; format: cell-based, Hepatitis C virus; conditions: 2 μM for 3 h; for HCV RNA replication: viral RNA by real-time PCR after 48 or 72 h; for HCV protein synthesis (translation): NS5 by Western blotting after 48 or 72 h
Procedure: HCV replicon cell line 2-3+ was treated with the indicated compounds for 3 h. Cells were incubated for an additional 48 hours (FIG. 10A and FIG. 10C) or 72 hours (FIG. 10B and FIG. 10D). Cellular RNA or protein was isolated for quantifications of HCV viral RNA by real-time PCR (FIG. 10A and FIG. 10B) or […] NS5 by Western blotting (FIG. 10C and FIG. 10D).
Next, the ability of the aglaroxin C analogues to inhibit HCV RNA replication and mRNA translation was investigated using an HCV replicon system which harbors a full-length HCV Genotype 1b RNA genome. In replicon cells, HCV RNA replicates and is translated into viral proteins without forming infectious viruses. […] To corroborate these findings, an in vitro translation inhibition assay was assembled where a bicistronic reporter mRNA was programmed for translation in Krebs-2 extracts FIG. 11A-11B.
Cells and Antibodies. The human liver cell line Huh7.5.1 was provided by Scripps Research Institute. The full-length HCV Genotype 1b-replicon-containing cell line 2-3(+) was a gift from University of North Carolina, Chapel Hill, N.C. The Aedes albopictus cell line C6/36 was purchased from American Type Culture Collection (ATCC) (CRL-1660). All cell lines were maintained in DMEM supplemented with 5% penicillin and streptomycin, 1% NEAA, and 10% fetal bovine serum (FBS) (Gemini Bio-Products). The β-actin antibody (clone AC-74) was purchased from Sigma. The HCV NS5A monoclonal antibody 9E10 was a gift from Rockefeller University. Secondary antibodies were purchased from Jackson ImmunoResearch Laboratories, Inc, and Molecular Probes (Invitrogen). Primer sequences are: Dengue 16681: F: 5′-[…]-3′ (SEQ ID NO: 3); R: 5′-[…]-3′ (SEQ ID NO: 4). GAPDH: F: 5′-[…]-3′ (SEQ ID NO: 5); R: 5′-[…]-3′ (SEQ ID NO: 6).

Huh7.5.1 cells [5] = assay: Cytotoxicity, CellTiter-Glo Cell Viability Luminescent Assay; format: cell-based, human
Procedure: (§4) To determine the […] of each compound, Huh7.5.1 cells were treated with compounds or DMSO at indicated doses for 3 h in 96-well plates. After removal of compounds, cells were further incubated for 72 h prior to the viability assay. The numbers of viable cells in culture were determined using the CellTiter-Glo Cell Viability Luminescent Assay kit according to the manufacturer's instruction (Promega). Percentages of toxicity were calculated using the formulas: 100-percentage of vial cells relative to that from the dimethyl sulfoxide (DMSO) treated group (100%) (n=3) (FIG. 20-FIG. 57).

JFH-1 HCVcc-Luc = assay: microbe, parasite or virus in culture; format: cell-based, Hepatitis C virus; conditions: for EC50: Hepatitis C virus, Huh-7.5.1, read-out: EC50, inhibition of HCV infection; for inhibition of HCV infection (in words): Huh7.5.1 cells, comparisons are to aglaroxin C (6)
Ebolapp = format: cell-based, Ebola virus
[6] = tested on: Dengue virus (serotype 2, Thailand 16681 strain); format: cell-based; conditions: Huh7.5.1 cells, MOI 0.1, 2 μM for 3 h, viral RNA 48 h post-infection normalized against GAPDH
[7] = tested on: Denv viral envelope protein-mediated entry; format: cell-based, Dengue virus; conditions: Huh7.5 cells, FIG. 73C
[8] = tested on: Zika viral envelope protein-mediated entry; format: cell-based, Zika virus; conditions: Huh7.5 cells, FIG. 73C
translation = conditions: previous studies; cited from earlier work
[9] = tested on: WNV viral envelope protein-mediated entry; format: cell-based, West Nile virus; conditions: Huh7.5 cells, FIG. 73C
[10] = tested on: OHFV viral envelope protein-mediated entry; format: cell-based, Omsk Hemorrhagic Fever Virus (OHFV)
[11] = tested on: JEV viral envelope protein-mediated entry; format: cell-based, Japanese encephalitis virus; conditions: Huh7.5 cells, FIG. 73C
[12] = tested on: hepatitis C viral (HCV) entry into host cells; conditions: separate earlier studies; cited from earlier work
[13] = Cytotoxicity, CellTiter-Glo Cell Viability Luminescent Assay; format: cell-based, human; conditions: human; Huh7.5.1 cells, 3 h treatment, viability after 72 h; concentration giving 50% cell death
Procedure: as §4

[14] = tested on: Dengue virus (serotype 2, Thailand 16681 strain); conditions: comparison named in the text, no data shown; cited from earlier work

COc1ccc([C@@]23Oc4cc(OC)cc(OC)c4[C@]2(O)c2nc(-c4ccc(C)cc4)[nH]c(=O)c2[C@H]3c2ccccc2)cc1 (racemic) [12l, (5R,5aR,10bS)-10b-Hydroxy-8,10-dimethoxy-5a-(4-methoxyphenyl)-5-phenyl-2-(p-tolyl)-3,5,5a,10b-tetrahydro-4H-benzofuro[2′,3′:4,5]cyclopenta[1,2-d]pyrimidin-4-one]
toxicity curve in MTS assay compared with CellTiter-Glo assay (Huh7.5.1 cells [1]): nearly identical toxicity curves
translation inhibition of firefly luciferase (cap-dependent) [2]: minimal
inhibition of CHIKVpp infection (CHIKVpp): specifically inhibited
inhibition of VSVpp infection (VSVpp): not
anti-HCV activity when added 3 h after infection was initiated (HCVcc-Luc): partially lost their activity
anti-HCV activity when added together with the virus (HCVcc-Luc): maximal anti-HCV activity
HCV mRNA (IRES-dependent) translation [3]: not inhibited
inhibition of HCVpp infection (HCVpp): specifically inhibited
HCV RNA replication [4]: neither inhibit HCV RNA replication
AUC0.2-200, area under the cytotoxicity curve (in words) (Huh7.5.1 cells [5]): relatively lower cytotoxicities
EC50 (JFH-1 HCVcc-Luc): ~500 nM
inhibition of HCV infection (in words) (JFH-1 HCVcc-Luc): three-fold greater inhibition
inhibition of Ebolapp infection (Ebolapp): not

COc1ccc([C@@]23Oc4cc(OC)cc(OC)c4[C@]2(O)c2nc(-c4cccc(OC)c4)[nH]c(=O)c2[C@H]3c2ccccc2)cc1 (racemic) [12s, (5R,5aR,10bS)-10b-Hydroxy-8,10-dimethoxy-2-(3-methoxyphenyl)-5a-(4-methoxyphenyl)-5-phenyl-3,5,5a,10b-tetrahydro-4H-benzofuro[2′,3′:4,5]cyclopenta[1,2-d]pyrimidin-4-one]
translation inhibition of firefly luciferase (cap-dependent) [2]: minimal
inhibition of CHIKVpp infection (CHIKVpp): specifically inhibited
inhibition of VSVpp infection (VSVpp): not
anti-HCV activity when added 3 h after infection was initiated (HCVcc-Luc): partially lost their activity
anti-HCV activity when added together with the virus (HCVcc-Luc): maximal anti-HCV activity
anti-HCV activity when added together with the virus (HCVcc-Luc; listed as (±)-12s): inhibited HCV infection
HCV mRNA (IRES-dependent) translation [3]: not inhibited
inhibition of HCVpp infection (HCVpp): specifically inhibited
HCV RNA replication [4]: neither inhibit HCV RNA replication
AUC0.2-200, area under the cytotoxicity curve (in words) (Huh7.5.1 cells [5]): relatively lower cytotoxicities
EC50 (JFH-1 HCVcc-Luc): ~500 nM
inhibition of HCV infection (in words) (JFH-1 HCVcc-Luc): three-fold greater inhibition
inhibition of Ebolapp infection (Ebolapp): not

COc1ccc([C@@]23Oc4cc(OC)cc(OC)c4[C@]2(O)c2nc(-c4ccc(C)cc4)[nH]c(=O)c2[C@H]3c2ccccc2)cc1 [(+)-12l]
inhibition of Dengue virus infection [6]: inhibited Dengue virus infection
anti-HCV activity when added together with the virus (HCVcc-Luc): inhibited HCV infection
HCV protein synthesis (translation) [4]: did not inhibit
HCV RNA replication [4]: did not inhibit
maximum cytotoxicity plateau compared to racemic counterparts (Huh7.5.1 cells [5]; Huh7.5.1 cells): increased substantially
inhibition of HCV infection (in words) (JFH-1 HCVcc-Luc): displayed HCV inhibition

COc1ccc([C@@]23Oc4cc(OC)cc(OC)c4[C@]2(O)c2nc(-c4cccc(OC)c4)[nH]c(=O)c2[C@H]3c2ccccc2)cc1 [(+)-12s]
inhibition of Dengue virus infection [6]: inhibited Dengue virus infection
HCV protein synthesis (translation) [4]: did not inhibit
HCV RNA replication [4]: did not inhibit
maximum cytotoxicity plateau compared to racemic counterparts (Huh7.5.1 cells [5]; Huh7.5.1 cells): increased substantially
inhibition of HCV infection (in words) (JFH-1 HCVcc-Luc): displayed HCV inhibition

COc1ccc([C@@]23Oc4cc(OC)cc(OC)c4[C@]2(O)C2=C(C(=O)N4CCC[C@H]4N2)[C@H]3c2ccccc2)cc1 [compound 5, aglaiastatin]
% infection, Denv envelope [7]: under 1%
% infection, Zika envelope [8]: under 1%
translation inhibition (in words) (translation): promising translation inhibitor
% infection, WNV envelope [9]: under 1%
% infection, OHFV envelope [10]: under 1%
% infection, JEV envelope [11]: under 1%

COc1ccc([C@@]23Oc4cc(OC)cc(OC)c4[C@]2(O)c2nc4n(c(=O)c2[C@H]3c2ccccc2)CCC4)cc1 [compound 6, Aglaroxin C, reference compound]
concentration inhibiting HCV entry into host cells [12]: low μM concentration
translation inhibition of firefly luciferase (cap-dependent) [2]: minimal
translation inhibition (in words) (translation): only moderate translation inhibition
anti-HCV activity when added 3 h after infection was initiated (HCVcc-Luc): partially lost their activity
anti-HCV activity when added together with the virus (HCVcc-Luc): maximal anti-HCV activity
HCV mRNA (IRES-dependent) translation [3]: not inhibited
HCV RNA replication [4]: neither inhibit HCV RNA replication
CC50 [13]: 12 µM
cytotoxicity (in words) (Huh7.5.1 cells [5]; Huh7.5.1 cells, comparisons are to aglaroxin C (6)): plateauing of cytotoxicity
EC50 (JFH-1 HCVcc-Luc): 1300 nM

COc1ccc([C@@]23Oc4cc(OC)cc(OC)c4[C@]2(O)[C@H](O)[C@H](C(=O)N(C)C)[C@H]3c2ccccc2)cc1 [rocaglamide]
inhibition of Dengue virus infection [14]: inhibited Dengue virus infection

Reference: patent US11427595B2, “Compositions and methods for inhibiting viral infection” (Trustees of Boston University, priority 2018, dated 2022)
